From patent US8420144B2, “Kokumi-imparting agent, method of using, and compositions containing same” (Ajinomoto Co., Inc., priority 2005, dated 2013)

What was measured:
Assay type in all cases: in vivo, human
[1] = Quantitative sensory evaluation test of activity on basic tastes (umami, sweet, salty, sour standards); conditions: n=12, 0 control, 1 fairly intense, 2 intense; for Sour taste (intensity of activity on basic tastes): citric acid 0.05 g/dl standard; for Salty taste (intensity of activity on basic tastes): sodium chloride 0.7 g/dl standard; for Umami (intensity of activity on basic tastes): sodium glutamate 0.2 g/dl standard; for Sweet taste (intensity of activity on basic tastes): sucrose 5 g/dl standard
Procedure: The intensity of the activity on basic tastes of each peptide having confirmed calcium receptor activation activity was measured by a quantitative sensory evaluation test, performed as follows: Samples of either γ-Glu-Cys-Gly (glutathione) or γ-Glu-Val-Gly were added to distilled water (0.0001 to 1 g/dl) containing sodium glutamate (0.2 g/dl) for the umami standard, sucrose (5 g/dl) for the sweet taste standard, sodium chloride (0.7 g/dl) or the salty taste standard, or citric acid (0.05 g/dl) for the sour taste standard, and the intensity of the activity on basic tastes was measured for each sample.
Sample solutions that became acidic after dissolution of the samples with respect to the standard solutions without the samples were adjusted with NaOH to pH not lower or higher by 0.2 than pH of the standard solutions before use. Sensory evaluation scores were used to evaluate the intensity as follows: 0 points for the control sample, 1 point for fairly intense activity as compared to the control, and 2 points for intense activity as compared to the control, and the test was performed with n=12.

[2] = Quantitative sensory evaluation test of kokumi-imparting activity in water with sodium glutamate, inosine monophosphate and sodium chloride; set-up: key: *: Unmeasurable: Kokumi-imparting activity was too strong and could not be measured by the sensory evaluation
Procedure: Sample solutions that became acidic after dissolution of the samples were adjusted to pH 6.8 to 7.2 with NaOH before use. Sensory evaluation scores were used for evaluation based on the control sample (0 points) and the glutathione sample (3 points), and the test was performed with n=3.
The sample solutions that became acidic after dissolution of the samples were adjusted to pH 6.8 to 7.2 with NaOH before use. Sensory evaluation scores were used for evaluation based on the control sample (0 points) and the glutathione sample (3 points), and the test was performed with n=5.
Sample solutions that became acidic after dissolution of the samples were adjusted to pH 6.8 to 7.2 with NaOH before use. Sensory evaluation scores were used for evaluation based on the control sample (0 points) and the glutathione sample (3 points), and the test was performed with n=12.

[3] = Quantitative sensory evaluation test: imparting kokumi to consomme soup; conditions: n=12, 0 control, 3 intense, 5 extremely intense
Procedure: The intensity of activity for imparting kokumi to consomme soup of each peptide having confirmed calcium receptor activation activity was measured by a quantitative sensory evaluation test, performed as follows: Consomme soup was prepared by dissolving consomme soup powder (35% of sodium chloride, 18% of sodium glutamate, 0.2% of inosine monophosphate, 0.3% of white pepper powder, 0.5% of black pepper powder, 8.0% of beef extract powder, 3.0% of white wine powder, 2.0% of celery powder, 8.0% of Chinese cabbage extract powder, 2.5% of onion extract powder, […]) at a concentration of 5 g/dl. To this consomme soup, samples of either γ-Glu-Cys-Gly (glutathione) or γ-Glu-Val-Gly was added to a concentration of 0.0001 to 1 g/dl, and the intensity of the kokumi-imparting activity was measured for each sample. The consomme soup with the samples that became acidic after dissolution of the samples with respect to the consomme soup without the samples was adjusted with NaOH to pH not lower or higher by 0.2 than pH of the consomme soup without the samples before use. Sensory evaluation scores were used for evaluation as follows: 0 points for the control sample, 3 points for intense activity as compared to the control, and 5 points for extremely intense activity as compared to the control, and the test was performed with n=12.

[4] = Quantitative sensory evaluation test: imparting kokumi to corn soup; conditions: n=12, 0 control, 3 intense, 5 extremely intense
Procedure: The intensity of the activity for imparting kokumi to corn soup of each peptide having confirmed calcium receptor activation activity was measured by a quantitative sensory evaluation test, performed as follows: to commercially available corn soup, samples of either γ-Glu-Cys-Gly (glutathione) or γ-Glu-Val-Gly were added to a concentration of 0.0001 to 1 g/dl, and the intensity of the kokumi-imparting activity was measured for each sample. The corn soup with the samples that became acidic after dissolution of the samples with respect to the corn soup without the samples was adjusted with NaOH to pH not lower or higher by 0.2 than pH of the corn soup without the samples before use. Sensory evaluation scores were used to evaluate as follows: 0 points for the control sample, 3 points for intense activity as compared to the control, and 5 points for extremely intense activity as compared to the control, and the test was performed with n=12.

[5] = Quantitative sensory evaluation test: imparting kokumi to Japanese clear soup; conditions: n=12, 0 control, 3 intense, 5 extremely intense
Procedure: The intensity of activity for imparting kokumi to clear soup of each peptide having confirmed calcium receptor activation activity was measured by a quantitative sensory evaluation test, performed as follows: Japanese clear soup was prepared by adding 0.5 g/dl of soy sauce and 0.6 g/dl of sodium chloride to bonito kelp stock, obtained by adding 5 g of dried kelp to 3 L of water, heating the water, adding 25 g of dried bonito flakes just before boiling, and then filtering the water containing kelp and bonito flakes. To this clear soup, samples of either γ-Glu-Cys-Gly (glutathione) or γ-Glu-Val-Gly was added to a concentration of 0.0001 to 1 g/dl, and the intensity of the kokumi-imparting activity was measured for each sample. The clear soup with the samples that became acidic after dissolution of the samples with respect to the clear soup without the samples were adjusted with NaOH to pH not lower or higher by 0.2 than pH of the clear soup without the samples before use. Sensory evaluation scores were used to evaluate as follows: 0 points for the control sample, 3 points for intense activity as compared to the control, and 5 points for extremely intense activity as compared to the control, and the test was performed with n=12.

[6] = Quantitative sensory evaluation test: kokumi-imparting activity of peptides combined with known calcium receptor activators or additives; conditions: for Intensity of kokumi: Aftertaste / Intensity of kokumi: First and middle taste: alone, n=12, 0 control, 3 intense, 6 extremely intense
Procedure: The intensity of the kokumi-imparting activity of each peptide having confirmed calcium receptor activation activity and a known calcium receptor activator used in combination was measured by a quantitative sensory evaluation test, performed as follows: Samples of γ-Glu-Cys-Gly (glutathione) or γ-Glu-Val-Gly (0.0001 to 1 g/dl), or these samples combined with a calcium receptor activator such as calcium lactate, protamine or polylysine, or GABA (addition concentration: 0.0001 to 1 g/dl) were added to distilled water containing sodium glutamate (0.05 g/dl), inosine monophosphate (0.05 g/dl), and sodium chloride (0.5 g/dl), and the intensity of the kokumi-imparting activity was measured. Sample solutions that became acidic after dissolution of the samples were adjusted to pH 6.8 to 7.2 with NaOH before use. Sensory evaluation scores were used to evaluate as follows: 0 points for the control sample, 3 points for intense activity (as intensity of 0.05 g/dl γ-Glu-Cys-Gly and 0.005 g/dl γ-Glu-Val-Gly), and 6 points for extremely intense activity (as twice intensity of 0.05 g/dl γ-Glu-Cys-Gly and 0.005 g/dl γ-Glu-Val-Gly), and the test was performed with n=12.

[7] = Table 5, 0.1 g/dl, n=3, control 0, glutathione 3 points
[8] = Table 6, 0.1 g/dl, n=5, control 0, glutathione 3 points
[9] = Table 7, 0.1 g/dl, n=12, control 0, glutathione 3 points
[10] = Table 6, 0.01 g/dl, n=5, control 0, glutathione 3 points
[11] = Table 7, 0.01 g/dl, n=12, control 0, glutathione 3 points

N[C@@H](CCC(=O)N[C@@H](CS)C(=O)NCC(=O)O)C(=O)O [γ-Glu-Cys-Gly, reference compound]
Sour taste (intensity of activity on basic tastes) ([1]; 0.10 g/dl): 1.5 points
Salty taste (intensity of activity on basic tastes) ([1]; 0.10 g/dl): 0.2 points
Umami (intensity of activity on basic tastes) ([1]; 0.10 g/dl): 0.7 points
Sweet taste (intensity of activity on basic tastes) ([1]; 0.10 g/dl): 1.5 points
Intensity of kokumi: Aftertaste [2, 7]: 3.0 points
Intensity of kokumi: First and middle taste [2, 7]: 3.0 points
Intensity of kokumi: Aftertaste [2, 8]: 3.0 points
Intensity of kokumi: First and middle taste [2, 8]: 3.0 points
Intensity of kokumi: Aftertaste [2, 9]: 3.0 points
Intensity of kokumi: First and middle taste [2, 9]: 3.0 points
Intensity of kokumi: Aftertaste ([3]; 0.01 g/dl): 3.0 points
Intensity of kokumi: First and middle taste ([3]; 0.01 g/dl): 3.0 points
Intensity of kokumi: Aftertaste ([4]; 0.01 g/dl): 3.0 points
Intensity of kokumi: First and middle taste ([4]; 0.01 g/dl): 3.0 points
Intensity of kokumi: Aftertaste ([5]; 0.01 g/dl): 2.0 points
Intensity of kokumi: First and middle taste ([5]; 0.01 g/dl): 2.0 points
Intensity of kokumi: Aftertaste ([6]; 0.05 g/dl): 3.0 points
Intensity of kokumi: First and middle taste ([6]; 0.05 g/dl): 3.0 points
kokumi-imparting activity when used with a known calcium receptor activator or the like such as calcium ([6]; conclusion from Table 13): can have improved kokumi-imparting activity

CC(C)[C@H](NC(=O)CC[C@H](N)C(=O)O)C(=O)NCC(=O)O [γ-Glu-Val-Gly]
Sour taste (intensity of activity on basic tastes) ([1]; 0.005 g/dl): 0.5 points
Salty taste (intensity of activity on basic tastes) ([1]; 0.005 g/dl): 0.5 points
Umami (intensity of activity on basic tastes) ([1]; 0.005 g/dl): 0.7 points
Sweet taste (intensity of activity on basic tastes) ([1]; 0.005 g/dl): 0.5 points
Sour taste (intensity of activity on basic tastes) ([1]; 0.01 g/dl): 1.0 points
Salty taste (intensity of activity on basic tastes) ([1]; 0.01 g/dl): 1.0 points
Umami (intensity of activity on basic tastes) ([1]; 0.01 g/dl): 1.5 points
Sweet taste (intensity of activity on basic tastes) ([1]; 0.01 g/dl): 1.0 points
Intensity of kokumi: Aftertaste [2, 10]: 3.0 points
Intensity of kokumi: First and middle taste [2, 10]: 3.0 points
Intensity of kokumi: Aftertaste ([2]; Table 6, 0.1 g/dl, n=5): *
Intensity of kokumi: First and middle taste ([2]; Table 6, 0.1 g/dl, n=5): *
Intensity of kokumi: Aftertaste [2, 11]: 3.0 points
Intensity of kokumi: First and middle taste [2, 11]: 3.0 points
Intensity of kokumi: Aftertaste ([3]; 0.0005 g/dl): 3.0 points
Intensity of kokumi: First and middle taste ([3]; 0.0005 g/dl): 2.5 points
Intensity of kokumi: Aftertaste ([3]; 0.001 g/dl): 3.5 points
Intensity of kokumi: First and middle taste ([3]; 0.001 g/dl): 3.0 points
Intensity of kokumi: Aftertaste ([3]; 0.01 g/dl): 5.0 points
Intensity of kokumi: First and middle taste ([3]; 0.01 g/dl): 5.0 points
Intensity of kokumi: Aftertaste ([3]; 0.1 g/dl): 5.0 points
Intensity of kokumi: First and middle taste ([3]; 0.1 g/dl): 5.0 points
Intensity of kokumi: Aftertaste ([4]; 0.0005 g/dl): 3.0 points
Intensity of kokumi: First and middle taste ([4]; 0.0005 g/dl): 2.5 points
Intensity of kokumi: Aftertaste ([4]; 0.001 g/dl): 4.0 points
Intensity of kokumi: First and middle taste ([4]; 0.001 g/dl): 3.5 points
Intensity of kokumi: Aftertaste ([4]; 0.01 g/dl): 5.0 points
Intensity of kokumi: First and middle taste ([4]; 0.01 g/dl): 4.5 points
Intensity of kokumi: Aftertaste ([4]; 0.1 g/dl): 5.0 points
Intensity of kokumi: First and middle taste ([4]; 0.1 g/dl): 5.0 points
Intensity of kokumi: Aftertaste ([5]; 0.0005 g/dl): 3.0 points
Intensity of kokumi: First and middle taste ([5]; 0.0005 g/dl): 2.5 points
Intensity of kokumi: Aftertaste ([5]; 0.001 g/dl): 4.0 points
Intensity of kokumi: First and middle taste ([5]; 0.001 g/dl): 3.5 points
Intensity of kokumi: Aftertaste ([5]; 0.01 g/dl): 5.0 points
Intensity of kokumi: First and middle taste ([5]; 0.01 g/dl): 5.0 points
Intensity of kokumi: Aftertaste ([5]; 0.1 g/dl): 5.0 points
Intensity of kokumi: First and middle taste ([5]; 0.1 g/dl): 5.0 points
Intensity of kokumi: Aftertaste ([6]; 0.005 g/dl): 3.0 points
Intensity of kokumi: First and middle taste ([6]; 0.005 g/dl): 3.0 points
